One data set addresses T1, wildtype TRKB (Homo sapiens, UniProt Q16620).
T1 construct: purchased Reaction Biology
In words: Reaction Biology HotSpot Kinase assay (direct enzyme phosphorylation), TRKB. Particulars: 33P-ATP, 120 minutes at room temperature, filter-binding. The data set is classed as biochemical. As for the experimental part:
(§1) Direct enzyme phosphorylation assay. The Reaction Biology HotSpot Kinase assay was used to screen the present invention against a panel of TRKA, TRKB, and TRKC kinases. For assays of all kinases, the TRK enzyme was prepared in base reaction buffer (20 mM Hepes (pH 7.5), 10 mM MgCl2, 1 mM EGTA, 0.02% Brij35, 0.02 mg/ml BSA, 0.1 mM Na3VO4, 2 mM DTT, 1% DMSO). The reaction was initiated by the addition of 33P-ATP (10 μCi/μL) into the mixture. The reaction mixture was incubated for 120 minutes at room temperature. Radioactivity was detected by filter-binding method, and kinase activity expressed as the percent remaining kinase activity in test samples compared to vehicle reactions. IC50 values and curve fitting were obtained using Prism (GraphPad Software). The activity of the besylate salt of the present invention was determined using a direct enzymatic Reaction Biology HotSpot Kinase assay. All IC50 values are presented in nanomolar concentration. In the direct enzymatic measurement assay, the IC50 of the besylate salt of the current invention against the various TRK kinases is shown in Table 1.

The next data set has as its target T2, wildtype TRKC (Homo sapiens, UniProt Q16288).
T2 construct: purchased Reaction Biology
Nature of the data set: Reaction Biology HotSpot Kinase assay (direct enzyme phosphorylation), TRKC. Particulars: 33P-ATP, 120 minutes at room temperature, filter-binding. Format: biochemical. How it is done:
as §1

The target of a further data set is T3, wildtype TRKA (Homo sapiens, UniProt P04629).
T3 construct: purchased Reaction Biology
In words: Reaction Biology HotSpot Kinase assay (direct enzyme phosphorylation), TRKA. Particulars: 33P-ATP, 120 minutes at room temperature, filter-binding. Format: biochemical. How it is done: as §1

For data set [1] the following is noted: osteoarthritis patients, lowered dose with risk minimization strategy; 22 patients; cited from earlier work.

T1 sequence (Q16620 32-822): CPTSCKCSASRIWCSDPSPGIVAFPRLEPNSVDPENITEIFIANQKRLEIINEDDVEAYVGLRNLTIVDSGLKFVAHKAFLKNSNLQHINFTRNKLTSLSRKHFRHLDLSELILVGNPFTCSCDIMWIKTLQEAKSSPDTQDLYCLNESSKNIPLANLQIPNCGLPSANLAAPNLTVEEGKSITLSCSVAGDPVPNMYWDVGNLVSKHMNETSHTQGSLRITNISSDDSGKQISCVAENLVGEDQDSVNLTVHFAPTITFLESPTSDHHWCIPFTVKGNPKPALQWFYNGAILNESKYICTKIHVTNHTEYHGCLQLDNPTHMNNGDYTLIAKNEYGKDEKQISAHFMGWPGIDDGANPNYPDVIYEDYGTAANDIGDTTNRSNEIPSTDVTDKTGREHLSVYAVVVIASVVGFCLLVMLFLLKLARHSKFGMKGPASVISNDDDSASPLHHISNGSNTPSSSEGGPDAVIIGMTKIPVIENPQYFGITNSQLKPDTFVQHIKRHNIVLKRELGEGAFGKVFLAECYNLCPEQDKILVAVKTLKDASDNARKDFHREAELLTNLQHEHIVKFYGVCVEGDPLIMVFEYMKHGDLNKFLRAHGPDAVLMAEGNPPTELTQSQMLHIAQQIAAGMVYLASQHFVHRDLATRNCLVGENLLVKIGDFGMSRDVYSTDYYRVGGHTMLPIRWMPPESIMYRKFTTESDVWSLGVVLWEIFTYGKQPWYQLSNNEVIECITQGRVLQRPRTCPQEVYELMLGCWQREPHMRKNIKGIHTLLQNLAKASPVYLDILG
T2 sequence (Q16288 32-839): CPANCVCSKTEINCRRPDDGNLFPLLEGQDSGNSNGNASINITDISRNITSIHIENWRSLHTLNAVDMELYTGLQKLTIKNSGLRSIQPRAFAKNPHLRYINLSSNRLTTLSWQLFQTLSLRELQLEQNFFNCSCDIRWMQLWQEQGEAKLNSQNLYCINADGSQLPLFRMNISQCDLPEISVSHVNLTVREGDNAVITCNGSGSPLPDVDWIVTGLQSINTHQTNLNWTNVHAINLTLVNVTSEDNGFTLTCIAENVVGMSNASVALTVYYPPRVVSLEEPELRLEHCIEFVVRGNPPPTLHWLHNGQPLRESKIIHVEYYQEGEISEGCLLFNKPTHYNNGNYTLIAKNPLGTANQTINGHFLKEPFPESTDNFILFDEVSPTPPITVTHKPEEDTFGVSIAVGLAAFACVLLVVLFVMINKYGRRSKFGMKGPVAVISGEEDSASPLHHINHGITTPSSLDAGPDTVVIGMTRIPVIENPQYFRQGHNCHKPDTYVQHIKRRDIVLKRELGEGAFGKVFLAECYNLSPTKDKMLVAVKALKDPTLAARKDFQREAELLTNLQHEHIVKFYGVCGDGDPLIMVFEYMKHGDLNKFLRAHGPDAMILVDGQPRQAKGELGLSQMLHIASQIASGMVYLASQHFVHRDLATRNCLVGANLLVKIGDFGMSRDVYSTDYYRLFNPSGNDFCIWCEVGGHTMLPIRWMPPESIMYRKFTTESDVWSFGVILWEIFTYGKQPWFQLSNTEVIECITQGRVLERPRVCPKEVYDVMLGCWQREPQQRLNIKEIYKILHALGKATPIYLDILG
T3 sequence (P04629 33-796): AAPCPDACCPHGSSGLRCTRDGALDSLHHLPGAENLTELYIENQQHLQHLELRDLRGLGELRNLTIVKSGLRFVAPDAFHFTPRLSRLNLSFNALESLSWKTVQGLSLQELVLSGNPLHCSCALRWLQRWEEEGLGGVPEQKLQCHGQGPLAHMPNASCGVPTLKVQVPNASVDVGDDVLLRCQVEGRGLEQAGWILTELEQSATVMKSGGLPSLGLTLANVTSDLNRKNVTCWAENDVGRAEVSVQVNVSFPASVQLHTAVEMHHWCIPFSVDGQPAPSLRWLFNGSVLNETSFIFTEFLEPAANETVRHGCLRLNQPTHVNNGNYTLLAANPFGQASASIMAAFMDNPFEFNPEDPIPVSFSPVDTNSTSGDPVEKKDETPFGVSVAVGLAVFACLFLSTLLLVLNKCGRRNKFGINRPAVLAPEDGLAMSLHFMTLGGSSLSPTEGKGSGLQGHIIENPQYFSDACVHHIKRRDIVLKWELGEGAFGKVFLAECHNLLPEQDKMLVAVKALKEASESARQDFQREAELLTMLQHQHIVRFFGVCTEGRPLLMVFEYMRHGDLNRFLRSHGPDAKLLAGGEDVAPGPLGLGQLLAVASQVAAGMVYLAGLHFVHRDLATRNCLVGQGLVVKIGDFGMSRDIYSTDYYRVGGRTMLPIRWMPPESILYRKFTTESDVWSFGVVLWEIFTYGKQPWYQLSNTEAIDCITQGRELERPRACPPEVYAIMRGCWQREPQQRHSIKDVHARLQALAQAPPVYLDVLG

By IC50 is commonly meant the concentration that gives 50% inhibition. Consider `CC1(COc2ccc3c(c2)ncn3-c2ccc3cccc(N4CCC(N)CC4)c3n2)COC1` [crenolanib besylate], for which the IC50 on wildtype TRKB was 77.7 nM; at wildtype TRKC it was 1.68 nM; at wildtype TRKA, 31 nM.

Take tanezumab: the “patients treated who required knee or joint replacement” value in data set [1] was 9.4%.
